Like-named read-outs stand apart in the source and are kept apart here.
Experiments:
P. falciparum 3D7 strain = experiment: Antiplasmodial activity, SYBR Green I assay on P. falciparum 3D7 cultures; assay type: cell-based, Plasmodium falciparum; settings: for IC50: read-out: Plasmodium falciparum 3D7 Strain IC50 ± SD
Description: In vitro biological assays. Compounds were tested to establish a full dose-titration and determination of the IC50. […] Antiplasmodial activity. The P. falciparum 3D7 strain was maintained in O+ human erythrocytes in albumin RPMI-supplemented medium under continuous culture using the candle-jar method. The parasites were synchronized to the ring stage by repeated sorbitol treatment. A 2.5% (v/v) erythrocyte suspension with 1% parasitemia (number of parasites per 100 red blood cells) was incubated with the compounds to be tested, previously dissolved in DMSO. […] After 44 h of incubation at 37 °C, the plates were subjected to 3 freeze-thaw cycles to achieve complete hemolysis. […] The incorporation of SYBR Green I (Applied Biosystems) in parasite DNA was measured using the Master […]® (Eppendorf) according to the following program to increase the SYBR Green incorporation: 90 °C (1 min), decrease in temperature from 90 °C to 10 °C (during 5 min) with reading the fluorescence. Then, the IC50 was calculated by icestimator software.

[1] = Cytotoxicity assay on MRC-5 fibroblasts (resazurin); assay type: cell-based, human; settings: human
Description: (§1) In vitro biological assays. Compounds were tested to establish a full dose-titration and determination of the IC50. […] The selectivity antiprotozoal potential on P. falciparum (3D7 strain) was assessed by simultaneous evaluation of cytotoxicity on a fibroblast (MRC-5) cell line.
(§2) Cytotoxicity assay. […] Cell viability was assessed fluorometrically after 4 h of the addition of resazurin. Fluorescence was measured (excitation 550 nm, emission 590 nm), and the results were expressed as % reduction in cell viability compared to untreated control. Tamoxifen is used as the reference control.

[2] = tested on: human fibroblast MRC-5 cell line; experiment: as above; assay type: cell-based
Description: as §1, §2

[3] = Plasmodium falciparum, 3D7, 44 h, 3D7 strain, ring-stage synchronized, 44 h incubation, SYBR Green I
[4] = MRC-5 SV2 cells, 72 h, resazurin, read-out: Cytotoxicity MRC-5 CC50
[5] = Plasmodium falciparum, 3D7, 44 h

Structure (SMILES): O=C(/C=C/c1ccccn1)/C=C/c1ccccn1 [Compound A1]
- IC50 (P. falciparum 3D7 strain; [3]): 30.1 ± 8.5 nM
- CC50 at 72 h [1]: 1910 nM
- SI CC50/IC50 [2]: 63.4
- cytotoxicity classification from CC50 ([2]; MRC-5 cells, class in words): rather cytotoxic

Structure (SMILES): COc1ccc(O)c(/C=C/C(=O)/C=C/c2cc(OC)ccc2O)c1 [Compound A2]
- IC50 (P. falciparum 3D7 strain; [3]): 30.2 ± 6.3 nM
- CC50 at 72 h [1]: 1880 nM
- SI CC50/IC50 [2]: 62.2
- cytotoxicity classification from CC50 ([2]; MRC-5 cells, class in words): rather cytotoxic

Structure (SMILES): COc1ccc(/C=C/C(=O)/C=C/c2ccc3ccccc3c2)cc1 [Compound A3]
- IC50 (P. falciparum 3D7 strain; [3]): 51.2 ± 10.7 nM
- CC50 at 72 h [1]: 32000 nM
- SI CC50/IC50 [2]: 625
- cytotoxicity classification from CC50 [2]: rather not cytotoxic

Structure (SMILES): O=C(/C=C/c1ccc(F)cc1)/C=C/c1ccc(F)cc1 [Compound A4]
- IC50 (P. falciparum 3D7 strain; [3]): 70.6 ± 9.7 nM

Structure (SMILES): CN(C)c1ccc(/C=C/C(=O)/C=C/c2ccc(F)cn2)cc1 [Compound A5]
- IC50 (P. falciparum 3D7 strain; [3]): 110 ± 20.3 nM
- CC50 at 72 h [1]: 32200 nM
- SI CC50/IC50 [2]: 292.4
- cytotoxicity classification from CC50 [2]: rather not cytotoxic

Structure (SMILES): CN(C)c1ccc(/C=C/C(=O)/C=C/c2nccs2)cc1 [Compound A6]
- IC50 (P. falciparum 3D7 strain; [3]): 111 ± 12.5 nM
- CC50 at 72 h [1]: > 64000 nM

Structure (SMILES): O=C(/C=C/c1ccccc1)/C=C/c1ccncc1 [Compound A7]
- IC50 (P. falciparum 3D7 strain; [3]): 120 ± 17.3 nM
- CC50 at 72 h [1]: 1990 nM
- SI CC50/IC50 [2]: 16.5
- cytotoxicity classification from CC50 [2]: rather cytotoxic

Structure (SMILES): O=C(/C=C/c1ccco1)/C=C/c1ccco1 [Compound A8]
- IC50 (P. falciparum 3D7 strain; [3]): 121 ± 10.5 nM
- CC50 at 72 h [1, 4]: > 64000 nM
- SI CC50/IC50 [2]: >530.2

Structure (SMILES): O=C(/C=C/c1ccc(Cl)cc1)/C=C/c1ccc(Cl)cc1 [Compound A9]
- IC50 (P. falciparum 3D7 strain; [3]): 121 ± 12.4 nM
- CC50 at 72 h [1]: 42400 nM
- SI CC50/IC50 [2]: 351.6
- cytotoxicity classification from CC50 [2]: rather not cytotoxic

Structure (SMILES): O=C(/C=C/c1ccccc1)/C=C/c1ccccn1 [Compound A10]
- IC50 (P. falciparum 3D7 strain; [3]): 161 ± 20.5 nM
- CC50 at 72 h [1]: 1530 nM
- SI CC50/IC50 [2]: 9.5
- cytotoxicity classification from CC50 [2]: rather cytotoxic

Structure (SMILES): O=C(/C=C/c1ccccc1Cl)/C=C/c1ccccc1Cl [Compound A11]
- IC50 (P. falciparum 3D7 strain; [3]): 181 ± 29.6 nM
- CC50 at 72 h [1]: 29400 nM
- SI CC50/IC50 [2]: 162.3

Structure (SMILES): O=C(/C=C/c1c(Cl)cccc1Cl)/C=C/c1c(Cl)cccc1Cl [Compound A12]
- IC50 (P. falciparum 3D7 strain; [3]): 240 ± 20.4 nM
- CC50 at 72 h [1, 4]: > 64000 nM
- SI CC50/IC50 [2]: >266.5

Structure (SMILES): O=C(/C=C/c1ccncc1)/C=C/c1ccncc1 [Compound A13]
- IC50 (P. falciparum 3D7 strain; [3]): > 500 nM
- CC50 at 72 h [1]: 1130 nM
- SI CC50/IC50 [2]: <2.3
- cytotoxicity classification from CC50 [2]: rather cytotoxic

Structure (SMILES): O=C(/C=C/c1ccccc1)/C=C/c1ncccn1 [Compound A14]
- IC50 (P. falciparum 3D7 strain; [3]): > 500 nM
- CC50 at 72 h [1]: 1560 nM
- SI CC50/IC50 [2]: <3.1
- cytotoxicity classification from CC50 [2]: rather cytotoxic

Structure (SMILES): COc1ccc(/C=C/C(=O)/C=C/c2ccc(N)cc2)cc1 [Compound A15]
- IC50 (P. falciparum 3D7 strain; [3]): > 500 nM

Structure (SMILES): Cc1ccc(/C=C/C(=O)/C=C/c2ccc(C)o2)o1 [Compound A16]
- IC50 (P. falciparum 3D7 strain; [3]): > 500 nM
- CC50 at 72 h [1]: 5360 nM
- SI CC50/IC50 [2]: <10.7
- cytotoxicity classification from CC50 ([2]; MRC-5 cells, class in words): rather cytotoxic

Structure (SMILES): Cc1ccc(/C=C/C(=O)/C=C/c2ccc(C)cc2)cc1 [Compound A17]
- IC50 (P. falciparum 3D7 strain; [3]): > 500 nM
- CC50 at 72 h [1]: 32500 nM
- SI CC50/IC50 [2]: <64.9
- cytotoxicity classification from CC50 [2]: rather not cytotoxic

Structure (SMILES): COc1cc(/C=C/C(=O)/C=C/c2ccc(O)c(OC)c2)ccc1O [Compound A18]
- IC50 (P. falciparum 3D7 strain; [5]): > 500 nM
- CC50 at 72 h [1]: 1060 nM
- SI CC50/IC50 [2]: <2.1
- cytotoxicity classification from CC50 [2]: rather cytotoxic

Structure (SMILES): CN(C)c1ccc(/C=C/C(=O)/C=C/c2ccc(N(C)C)cc2)cc1 [Compound A19]
- IC50 (P. falciparum 3D7 strain; [3]): > 500 nM
- CC50 at 72 h [1]: 62300 nM
- SI CC50/IC50 [2]: <124.5
- cytotoxicity classification from CC50 [2]: rather not cytotoxic

Structure (SMILES): COc1cc(Br)c(OC)c([C@@H]2CC(=O)C[C@H](c3cc(OC)cc(Br)c3OC)S2)c1 [Compound B1]
- IC50 (P. falciparum 3D7 strain; [3]): 30.3 ± 6.1 nM
- CC50 at 72 h [1]: > 64000 nM
- SI CC50/IC50 [2]: >2112.2

Structure (SMILES): COc1cc([C@@H]2CC(=O)C[C@@H](c3cc(OC)c(C)cc3OC)S2)c(OC)cc1C [Compound B2]
- IC50 (P. falciparum 3D7 strain; [3]): 30.6 ± 9.2 nM

Structure (SMILES): O=C1C[C@H](c2ccccn2)[S+]([O-])[C@@H](c2ccccn2)C1 [Compound B3]
- IC50 (P. falciparum 3D7 strain; [3]): 40.1 ± 7.3 nM
- CC50 at 72 h [1]: 8000 nM
- SI CC50/IC50 [2]: 199.5
- cytotoxicity classification from CC50 ([2]; MRC-5 cells, class in words): moderately cytotoxic

Structure (SMILES): O=C1C[C@@H](c2c(Cl)cccc2Cl)S[C@@H](c2c(Cl)cccc2Cl)C1 [Compound B4]
- IC50 (P. falciparum 3D7 strain; [3]): 60.4 ± 10.2 nM

Structure (SMILES): O=C1C[C@H](c2ccccn2)[S+]([O-])[C@H](c2ccccn2)C1 (stereo partly drawn) [Compound B5]
- IC50 (P. falciparum 3D7 strain; 3D7 strain, ring-stage synchronized, 44 h incubation, SYBR Green I): 240 ± 48.1 nM
- CC50 at 72 h [1]: 8060 nM
- SI CC50/IC50 [2]: 33.6
- cytotoxicity classification from CC50 ([2]; MRC-5 cells, class in words): moderately cytotoxic

Structure (SMILES): O=C1C[C@@H](c2ccccn2)S[C@@H](c2ccccn2)C1 [Compound B6]
- IC50 (P. falciparum 3D7 strain; [3]): > 500 nM
- CC50 at 72 h [1, 4]: > 64000 nM
- SI CC50/IC50 [2]: <128

Structure (SMILES): O=C1C[C@H](c2ccccn2)S[C@@H](c2ccccn2)C1 [Compound B7]
- IC50 (P. falciparum 3D7 strain; [3]): > 500 nM
- CC50 at 72 h [1, 4]: > 64000 nM
- SI CC50/IC50 [2]: <128

Structure (SMILES): O=C1C[C@@H](c2c(Cl)cccc2Cl)S[C@H](c2c(Cl)cccc2Cl)C1 [Compound B8]
- IC50 (P. falciparum 3D7 strain; [3]): > 500 nM
- CC50 at 72 h [1]: > 64000 nM
- SI CC50/IC50 [2]: <128

Structure (SMILES): O=C1C[C@H](c2ccccn2)S(=O)(=O)[C@@H](c2ccccn2)C1 [Compound B9]
- IC50 (P. falciparum 3D7 strain; [3]): > 500 nM
- CC50 at 72 h [1]: 7890 nM
- SI CC50/IC50 [2]: <15.8
- cytotoxicity classification from CC50 ([2]; MRC-5 cells, class in words): moderately cytotoxic

Structure (SMILES): COc1ccc([C@H]2CC(=O)C[C@H](c3ccc(OC)cc3)S2(=O)=O)cc1 [Compound B10]
- IC50 (P. falciparum 3D7 strain; [3]): > 500 nM
- CC50 at 72 h [1, 4]: > 64000 nM
- SI CC50/IC50 [2]: <128

Structure (SMILES): O=C1C[C@H](c2ccccn2)S(=O)(=O)[C@H](c2ccccn2)C1 [Compound B11]
- IC50 (P. falciparum 3D7 strain; [3]): > 500 nM
- CC50 at 72 h [1]: 7470 nM
- SI CC50/IC50 [2]: <14.9
- cytotoxicity classification from CC50 ([2]; MRC-5 cells, class in words): moderately cytotoxic

Structure (SMILES): CN(C)c1ccc([C@H]2CC(=O)C[C@H](c3ccc(N(C)C)cc3)S2)cc1 [Compound B12]
- IC50 (P. falciparum 3D7 strain; [3]): > 500 nM
- observed activity against 3D7 P. falciparum strain (in words) (P. falciparum 3D7 strain; in vitro 3D7 culture, active/inactive): inactive
- CC50 at 72 h [1]: 4960 nM
- SI CC50/IC50 [2]: <9.9
- cytotoxicity classification from CC50 [2]: moderately cytotoxic

Structure (SMILES): CCN(CC)CCCC(C)Nc1ccnc2cc(Cl)ccc12 (stereo not drawn) [chloroquine, reference compound]
- IC50 (P. falciparum 3D7 strain; [5]): 20.3 ± 5.2 nM

Structure (SMILES): CC/C(=C(\c1ccccc1)c1ccc(OCCN(C)C)cc1)c1ccccc1 [tamoxifen, reference compound]
- CC50 at 72 h ([1]; MRC-5 SV2 fibroblast cells, MRC-5 SV2 cells, 72 h, resazurin, read-out: Cytotoxicity MRC-5 CC50): 9120 nM
